This note sets out measurements from patent US8119116B2, “Therapeutics for cancer using 3-bromopyruvate and other selective inhibitors of ATP production” (John Hopkins University School of Medicine, priority 2001, dated 2012).

One data set relates to VX2 tumor slices. The experiment in a line: Glycolysis (lactic acid formation) in VX2 tumor slices. The data set is classed as cell-based, rabbit. As to the method:
Glycolysis was assayed by monitoring the formation of lactic acid following the addition of glucose to a medium containing VX2 tumor slices. Specifically, freshly excised tumors were washed 3 times at 4° C. in 20 ml Chance Hess Medium containing 6.2 mM KCl, 154 mM NaCl, and 11 mM NaPi, pH 7.4. Slices, 1 g each, were then prior incubated for 30 min in a Lab-Line incubator-shaker at 37° C. in 2 ml of the same medium while shaking at 50 rpm. Glucose was then added to give a final concentration of 6 mM, after which the incubation/shaking process was continued with 0.2 ml samples being removed every 30 min for up to 2 h. These samples were subjected to centrifugation at 14,000 rpm in an Eppendorf Centrifuge (Model 5415C). Then, aliquots of the supernatant, 0.01 ml, were removed from each sample, diluted with 0.03 ml of water and subjected to lactic acid determination using the kit supplied by Sigma. The latter contains, in addition to lactic dehydrogenase and NAD+, hydrazine, and glycine buffer, pH 9.2. The mixture was incubated for 30 min at 25° C. after which the absorbance due to formation of NADH was determined at 340 nm using a Gilford Model 260 spectrophotometer. To assess the elevation of the glycolytic activity of the VX2 tumor over that of liver tissue, parallel studies were always carried out in an identical manner with 1 g liver slices derived from the host liver. Finally, in those cases where agents were tested for their capacity to inhibit glycolysis, these were introduced into the system at the prior incubation step with all subsequent steps being run in parallel with those described above for the VX2 tumor or liver alone.
The screen included the following 9 compounds: 2-deoxyglucose (2DOG), 2-fluoro-2-deoxyglucose, 6-fluoro-6-deoxyglucose, 3-O-methyl glucose, 5-thio-D-glucose-6-phosphate, L-glucose, D-xylose, D-lyxose, and 3-bromopyruvic acid (3BrPA). The screen was conducted by incubating VX2 tumor slices in a medium containing 6 mM glucose with 6 mM of each of these agents at 37° C. for 5 h. The use of 6 mM glucose in the medium was used to mimic the maximal amount of glucose that might be in the blood in a real in vivo situation.
With the above preliminary data at hand, only two of the 9 compounds screened were studied in more detail. One was 2DOG because under certain conditions it is known to inhibit glycolysis when it is phosphorylated by hexokinase to 2DOG-6-P which cannot be further metabolized. The other compound tested in more detail was 3BrPA because of its effectiveness as a glycolytic inhibitor in the preliminary screen.

Data set [1] concerns hexokinase bound to the mitochondrial fraction of the VX2 tumor. In words: Hexokinase activity of the VX2 tumor mitochondrial fraction. The conditions noted are these: 5 mM, VX2 tumor mitochondria. Format: biochemical, rabbit. As to the method:
The freshly isolated liver or VX2 tumor tissues (15-20 g wet weight) was rinsed in 3 volumes of H-medium (210 mM D-mannitol, 70 mM sucrose, 2 mM Hepes, and 0.05% bovine albumin, pH 7.4) at 4° C. and minced with a razor blade as finely as possible. A 30% (V/V) suspension was made using ice-cold H-medium in a Potter-Elvehjem glass homogenizer (55 ml capacity), and homogenization was achieved by applying 4 complete up and down strokes through the suspension with a rotating (˜400 rpm), serrated, teflon pestle attached to a motor. To remove cell debris and nuclei, the resultant homogenate was diluted to twice the initial volume and centrifuged at 630×g for 8 minutes at 4° C. in a Sorvall RC-2B centrifuge using a GSA rotor. The supernatant was removed and then centrifuged at 6,800 g for 15 min under the same conditions. The resultant supernatant was saved and referred to here as the cytosolic faction. The pellet was resuspended in the initial volume of H-medium and centrifuged twice at 9,800×g for 15 min at 4° C. The washed pellet represents the mitochondrial fraction.
The assay coupled the glucose-6-phosphate formed in the hexokinase reaction to the glucose-6-phosphate dehydrogenase reaction. Here, NADP+, oxidizes glucose-6-phosphate to a g-lactone while becoming reduced to NADPH, thus allowing the formation of the latter to be monitored spectrophotometrically at 340 nm. […]

Data set [2] deals with liver implanted VX2 tumors. The experiment in a line: Systemic delivery via marginal ear vein, effect on liver implanted VX2 tumors. The data set is classed as in vivo, rabbit. The conditions noted are these: 25 ml, 0.5 mM via a marginal ear vein. How it is done:
(§1) Normal tissues and tumors were fixed in 10% formalin, sliced at […] intervals for gross examination, and then embedded completely in paraffin after which […] sections were stained with hemotoxylin and eosin. Tumor viability was estimated by visual inspection and expressed as a percentage of viable tumor area for each slice. The overall percentage of viable tumor in each rabbit was calculated.
(§2) Finally, it was important to examine the effect of 3-BrPA when delivered systemically (i.e., via the general circulation) on both animal toxicity and its capacity to damage liver implanted tumors.

For the next data set, the system named is AS-30D hepatoma cells. The experiment in a line: Hepatoma cell viability by trypan blue. The data set is classed as cell-based, rat. The conditions noted are these: 5 mM, 12 h. How it is done:
AS-30D hepatoma cells grown in the peritoneal cavity of Sprague Dawley female rats (see Materials) were adapted to grow in tissue culture in Dulbecco's modified Eagle's medium containing 10% fetal bovine serum. Cells were maintained at 37° C. in a humidified atmosphere containing 5% CO2, and counted in a Neubauer chamber after trypan blue dye addition (cell/dye volume=1/1) by visualization under a Nikon inverted microscope.
The studies described above using the VX2 tumor model for liver cancer predict that 2DOG and 3BrPA may have the capacity to kill hepatoma cells expressing the high glycolytic/high hexokinase phenotype. […] Cell killing was assessed in these experiments by counting those cells in which trypan blue had entered.

The test system of data set [3] is rabbits harboring liver implanted VX2 tumors. In words: Systemic delivery via marginal ear vein, animal toxicity. Format: in vivo, rabbit. The following applies: 25 ml, 0.5 mM via a marginal ear vein. As to the method:
as §1, §2

Take `O=C(O)C(=O)CBr` [3BrPA, 3-bromopyruvic acid]: the “inhibition of VX2 tumor glycolysis in the limited screen” value in the data set with VX2 tumor slices (6 mM agent, 6 mM glucose, 37° C., 5 h) is recorded as “almost completely inhibited”. For the same molecule, the IC50 with VX2 tumor slices (Oryctolagus cuniculus, 0.5 h, read-out: half maximal inhibition of glycolysis) amounted to 2.4 mM. Further, the “concentration for maximal or complete inhibition of glycolysis” value in the data set on VX2 tumor slices (VX2 tumor slices, agent prior incubated 30 min at 37° C.) is on record as “about 15 mM”. The “inhibition of the hexokinase reaction” value in data set [1] is given as “inhibits completely”. For the same molecule, the “killing effect on liver implanted VX2 tumors” value in data set [2] is recorded as “no killing effect”. For the same molecule, in the data set on AS-30D hepatoma cells, the “cells killed (trypan blue uptake)” value is recorded as “killing all cells”. The animal behavior result in data set [3] was “normal behavior”. Also, the “histological examination of 9 major tissues” value in data set [3] (4 days) is “no obvious damage”.
